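96-well plates; 48 h exposure; 5 concentrations. Endpoints by linear interpolation between flanking doses. Not reached: highest tested concentration assigned. GI50: concentration for 50% inhibition of growth.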 Activity calls are given as the source filed them. Rule as the data show it: active = GI50 up to about 1.1 µM and inactive = higher.
Legend:
Test in all cases: NCI-60 cell line screen, 48 h
M14 = test system: M14
RPMI-8226 = test system: RPMI-8226
LOX IMVI = test system: LOX IMVI
CAKI-1 = test system: CAKI-1
SK-MEL-5 = test system: SK-MEL-5
SK-MEL-2 = test system: SK-MEL-2
NCI-H23 = test system: NCI-H23
DU-145 = test system: DU-145
MDA-MB-231 = test system: MDA-MB-231
NCI-H226 = test system: NCI-H226
786-0 = test system: 786-0
MDA-MB-435 = test system: MDA-MB-435
A498 = test system: A498
SNB-19 = test system: SNB-19
MOLT-4 = test system: MOLT-4
NCI/ADR-RES = test system: NCI/ADR-RES
COLO 205 = test system: COLO 205
SR = test system: SR
SNB-75 = test system: SNB-75
EKVX = test system: EKVX

| SMILES | GI50 (M14) | GI50 (RPMI-8226) | GI50 (LOX IMVI) | GI50 (CAKI-1) | GI50 (SK-MEL-5) | GI50 (SK-MEL-2) | GI50 (NCI-H23) | GI50 (DU-145) | GI50 (MDA-MB-231) | GI50 (NCI-H226) | GI50 (786-0) | GI50 (MDA-MB-435) | GI50 (A498) | GI50 (SNB-19) | GI50 (MOLT-4) | GI50 (NCI/ADR-RES) | GI50 (COLO 205) | GI50 (SR) | GI50 (SNB-75) | GI50 (EKVX) |
| --- | --- | --- | --- | --- | --- | --- | --- | --- | --- | --- | --- | --- | --- | --- | --- | --- | --- | --- | --- | --- |
| C=C1C(=O)O[C@H]2C(=O)[C@H](C)CCC[C@@](C)(O)/C=C\C[C@@]3(C)O[C@@H]3C[C@@H]12 | 11.3 µM (inactive) | 17 µM (inactive) | 15.8 µM (inactive) | 12.9 µM (inactive) | 15.2 µM (inactive) | 19.5 µM (inactive) | 24.5 µM (inactive) | 14.5 µM (inactive) | 21.7 µM (inactive) | 82.2 µM (inactive) | 12.3 µM (inactive) | 18.5 µM (inactive) | 16.1 µM (inactive) | 35.8 µM (inactive) | < 0.01 µM (active) | 39.4 µM (inactive) | 16.2 µM (inactive) | – | – | – |
| COCOc1c(C(O[Si](C)(C)C(C)(C)C)c2cnc(Sc3ccccc3)n2C)ccc(OC)c1OC (stereo not given) | – | 1.85 µM (inactive) | 1.84 µM (inactive) | 3.03 µM (inactive) | 1.82 µM (inactive) | 1.31 µM (inactive) | > 100 µM (inactive) | > 100 µM (inactive) | 1.66 µM (inactive) | 1.85 µM (inactive) | 1.82 µM (inactive) | 1.75 µM (inactive) | – | 2.14 µM (inactive) | 2.54 µM (inactive) | 1.35 µM (inactive) | – | 2.47 µM (inactive) | 2.2 µM (inactive) | 2.53 µM (inactive) |
| CCNC(=O)Nc1cccc(NC(=O)NCC)n1 | > 100 µM (inactive) | – | – | 75.2 µM (inactive) | > 100 µM (inactive) | – | > 100 µM (inactive) | > 100 µM (inactive) | > 100 µM (inactive) | > 100 µM (inactive) | > 100 µM (inactive) | > 100 µM (inactive) | 60.1 µM (inactive) | > 100 µM (inactive) | > 100 µM (inactive) | – | > 100 µM (inactive) | 51.4 µM (inactive) | 24.5 µM (inactive) | 35.8 µM (inactive) |
| ClC1=C(Cc2ccccc2)Cc2ccc3c(c21)CCC3 | > 100 µM (inactive) | 29.4 µM (inactive) | 17.9 µM (inactive) | 41.4 µM (inactive) | 20.8 µM (inactive) | – | 19.7 µM (inactive) | 48.5 µM (inactive) | 21.8 µM (inactive) | 23 µM (inactive) | 30.4 µM (inactive) | 28 µM (inactive) | – | 21.5 µM (inactive) | 19.1 µM (inactive) | – | 13.4 µM (inactive) | 18.3 µM (inactive) | > 10 µM (inactive) | 39.3 µM (inactive) |
| CCC(C#N)NCc1cccc(CNC(C#N)CC)c1 (stereo not given) | 17.6 µM (inactive) | – | > 100 µM (inactive) | > 100 µM (inactive) | > 100 µM (inactive) | > 100 µM (inactive) | > 100 µM (inactive) | > 100 µM (inactive) | > 100 µM (inactive) | > 100 µM (inactive) | > 100 µM (inactive) | > 100 µM (inactive) | > 100 µM (inactive) | > 100 µM (inactive) | > 100 µM (inactive) | > 100 µM (inactive) | > 100 µM (inactive) | – | – | > 100 µM (inactive) |
| COC(=O)c1cc(OS(=O)(=O)C(F)(F)F)c(=O)n2c1CCCC2 | > 100 µM (inactive) | – | > 100 µM (inactive) | > 100 µM (inactive) | > 100 µM (inactive) | > 100 µM (inactive) | > 100 µM (inactive) | > 100 µM (inactive) | > 100 µM (inactive) | 9.2 µM (inactive) | > 100 µM (inactive) | > 100 µM (inactive) | > 100 µM (inactive) | > 100 µM (inactive) | > 100 µM (inactive) | > 100 µM (inactive) | > 100 µM (inactive) | – | > 100 µM (inactive) | > 100 µM (inactive) |
| c1ccc2c(c1)ncn2CCn1ccnc1 | > 100 µM (inactive) | > 100 µM (inactive) | > 100 µM (inactive) | – | > 100 µM (inactive) | > 100 µM (inactive) | > 100 µM (inactive) | > 100 µM (inactive) | > 100 µM (inactive) | > 100 µM (inactive) | > 100 µM (inactive) | > 100 µM (inactive) | > 100 µM (inactive) | > 100 µM (inactive) | > 100 µM (inactive) | > 100 µM (inactive) | > 100 µM (inactive) | – | > 100 µM (inactive) | > 100 µM (inactive) |
| Cc1ccc(/N=N/c2c(O)ccc3cc(S(=O)(=O)O)ccc23)cc1 | > 100 µM (inactive) | > 100 µM (inactive) | 18.2 µM (inactive) | 23.9 µM (inactive) | > 100 µM (inactive) | > 100 µM (inactive) | > 100 µM (inactive) | > 100 µM (inactive) | 18.8 µM (inactive) | > 100 µM (inactive) | 12.6 µM (inactive) | > 100 µM (inactive) | – | > 100 µM (inactive) | > 100 µM (inactive) | > 100 µM (inactive) | 73.5 µM (inactive) | – | 34.8 µM (inactive) | 29.6 µM (inactive) |
| Nc1ncnc2c1ncn2C1OC(CO)CC1O (stereo not given) | 38.2 µM (inactive) | – | 21.4 µM (inactive) | > 100 µM (inactive) | > 100 µM (inactive) | – | 90.8 µM (inactive) | 30.1 µM (inactive) | 17.9 µM (inactive) | > 100 µM (inactive) | 17.5 µM (inactive) | > 10 µM (inactive) | – | 26.9 µM (inactive) | > 100 µM (inactive) | 20.3 µM (inactive) | 93.5 µM (inactive) | > 100 µM (inactive) | 35.2 µM (inactive) | 40.6 µM (inactive) |
| N#Cc1c(N)nc(Sc2ccccc2N)c(C#N)c1-c1ccccc1 | 24.2 µM (inactive) | 12.7 µM (inactive) | 12.9 µM (inactive) | 28.6 µM (inactive) | 19.4 µM (inactive) | 10.9 µM (inactive) | 13.3 µM (inactive) | 14.8 µM (inactive) | 14 µM (inactive) | 47.2 µM (inactive) | 13.5 µM (inactive) | 23.6 µM (inactive) | – | 29.4 µM (inactive) | 11.6 µM (inactive) | 11.5 µM (inactive) | 35.7 µM (inactive) | 21 µM (inactive) | – | 16.2 µM (inactive) |
| O=C(CC(=O)N1N=C(N2CCCCC2)CC1c1ccccc1)Nc1ccc(Cl)cc1 (stereo not given) | > 100 µM (inactive) | – | > 100 µM (inactive) | > 100 µM (inactive) | > 100 µM (inactive) | > 100 µM (inactive) | > 100 µM (inactive) | > 100 µM (inactive) | > 100 µM (inactive) | > 100 µM (inactive) | > 100 µM (inactive) | > 100 µM (inactive) | > 100 µM (inactive) | > 100 µM (inactive) | > 100 µM (inactive) | > 100 µM (inactive) | > 100 µM (inactive) | – | > 100 µM (inactive) | > 100 µM (inactive) |
| CC[N+](CC)(CC)/C(=N\S(=O)(=O)c1ccc(Cl)cc1)[N-]S(=O)(=O)c1cc(C)c(Cl)cc1S | 39.3 µM (inactive) | 47.3 µM (inactive) | > 100 µM (inactive) | > 100 µM (inactive) | > 100 µM (inactive) | > 100 µM (inactive) | 85.9 µM (inactive) | 97.3 µM (inactive) | > 100 µM (inactive) | 32.1 µM (inactive) | > 100 µM (inactive) | > 100 µM (inactive) | 41.9 µM (inactive) | – | 2.51 µM (inactive) | > 100 µM (inactive) | – | – | – | > 100 µM (inactive) |
| C=CCCCC1CCCNC1=S (stereo not given) | > 100 µM (inactive) | > 100 µM (inactive) | – | > 100 µM (inactive) | > 100 µM (inactive) | > 100 µM (inactive) | > 100 µM (inactive) | > 100 µM (inactive) | > 100 µM (inactive) | > 100 µM (inactive) | > 100 µM (inactive) | > 100 µM (inactive) | > 100 µM (inactive) | > 100 µM (inactive) | > 100 µM (inactive) | – | – | – | > 100 µM (inactive) | > 100 µM (inactive) |
| C=C1[C@@](C)([C@@H]2CCCS2)[C@H]2C(C)=C[C@]1(C)n1c(=O)n(-c3ccccc3)c(=O)n12 | > 100 µM (inactive) | > 100 µM (inactive) | – | > 100 µM (inactive) | > 100 µM (inactive) | > 100 µM (inactive) | > 100 µM (inactive) | > 100 µM (inactive) | > 100 µM (inactive) | > 100 µM (inactive) | > 100 µM (inactive) | > 100 µM (inactive) | > 100 µM (inactive) | > 100 µM (inactive) | > 100 µM (inactive) | > 100 µM (inactive) | > 100 µM (inactive) | – | 46.5 µM (inactive) | > 100 µM (inactive) |
| CCOc1ccc2nc(-c3ccc(O)cc3)sc2c1 | > 100 µM (inactive) | 0.106 µM (active) | > 100 µM (inactive) | 36.7 µM (inactive) | 89.5 µM (inactive) | 71 µM (inactive) | 23.5 µM (inactive) | > 100 µM (inactive) | > 100 µM (inactive) | > 100 µM (inactive) | – | > 100 µM (inactive) | 30.4 µM (inactive) | 23.9 µM (inactive) | > 100 µM (inactive) | > 100 µM (inactive) | > 100 µM (inactive) | – | – | 10.3 µM (inactive) |
| CC1(C)[C@@H](Cn2nnc3c(N)ncnc32)CC[C@@]1(C)CO | > 100 µM (inactive) | > 100 µM (inactive) | > 100 µM (inactive) | > 100 µM (inactive) | 55 µM (inactive) | > 100 µM (inactive) | – | > 100 µM (inactive) | > 100 µM (inactive) | > 100 µM (inactive) | > 100 µM (inactive) | > 100 µM (inactive) | > 100 µM (inactive) | > 100 µM (inactive) | < 0.01 µM (active) | > 100 µM (inactive) | – | – | > 100 µM (inactive) | > 100 µM (inactive) |

Source: ChEMBL document CHEMBL1201862, “PubChem BioAssay data set” (2004)
